# Experimental data taken from ChEMBL document CHEMBL1201862, “PubChem BioAssay data set” (2004).
# Active and inactive are the calls of the source. No rule for the calls is given here.
# Biological target: Voltage-dependent T-type calcium channel subunit alpha-1H (Homo sapiens, UniProt O95180)
# Test: human CACNA1H calcium influx blockade – cell-based, synthetic library set 1, calcium flux (AID 493022)
# Assay type: functional
# Sequence of Voltage-dependent T-type calcium channel subunit alpha-1H (O95180 whole entry): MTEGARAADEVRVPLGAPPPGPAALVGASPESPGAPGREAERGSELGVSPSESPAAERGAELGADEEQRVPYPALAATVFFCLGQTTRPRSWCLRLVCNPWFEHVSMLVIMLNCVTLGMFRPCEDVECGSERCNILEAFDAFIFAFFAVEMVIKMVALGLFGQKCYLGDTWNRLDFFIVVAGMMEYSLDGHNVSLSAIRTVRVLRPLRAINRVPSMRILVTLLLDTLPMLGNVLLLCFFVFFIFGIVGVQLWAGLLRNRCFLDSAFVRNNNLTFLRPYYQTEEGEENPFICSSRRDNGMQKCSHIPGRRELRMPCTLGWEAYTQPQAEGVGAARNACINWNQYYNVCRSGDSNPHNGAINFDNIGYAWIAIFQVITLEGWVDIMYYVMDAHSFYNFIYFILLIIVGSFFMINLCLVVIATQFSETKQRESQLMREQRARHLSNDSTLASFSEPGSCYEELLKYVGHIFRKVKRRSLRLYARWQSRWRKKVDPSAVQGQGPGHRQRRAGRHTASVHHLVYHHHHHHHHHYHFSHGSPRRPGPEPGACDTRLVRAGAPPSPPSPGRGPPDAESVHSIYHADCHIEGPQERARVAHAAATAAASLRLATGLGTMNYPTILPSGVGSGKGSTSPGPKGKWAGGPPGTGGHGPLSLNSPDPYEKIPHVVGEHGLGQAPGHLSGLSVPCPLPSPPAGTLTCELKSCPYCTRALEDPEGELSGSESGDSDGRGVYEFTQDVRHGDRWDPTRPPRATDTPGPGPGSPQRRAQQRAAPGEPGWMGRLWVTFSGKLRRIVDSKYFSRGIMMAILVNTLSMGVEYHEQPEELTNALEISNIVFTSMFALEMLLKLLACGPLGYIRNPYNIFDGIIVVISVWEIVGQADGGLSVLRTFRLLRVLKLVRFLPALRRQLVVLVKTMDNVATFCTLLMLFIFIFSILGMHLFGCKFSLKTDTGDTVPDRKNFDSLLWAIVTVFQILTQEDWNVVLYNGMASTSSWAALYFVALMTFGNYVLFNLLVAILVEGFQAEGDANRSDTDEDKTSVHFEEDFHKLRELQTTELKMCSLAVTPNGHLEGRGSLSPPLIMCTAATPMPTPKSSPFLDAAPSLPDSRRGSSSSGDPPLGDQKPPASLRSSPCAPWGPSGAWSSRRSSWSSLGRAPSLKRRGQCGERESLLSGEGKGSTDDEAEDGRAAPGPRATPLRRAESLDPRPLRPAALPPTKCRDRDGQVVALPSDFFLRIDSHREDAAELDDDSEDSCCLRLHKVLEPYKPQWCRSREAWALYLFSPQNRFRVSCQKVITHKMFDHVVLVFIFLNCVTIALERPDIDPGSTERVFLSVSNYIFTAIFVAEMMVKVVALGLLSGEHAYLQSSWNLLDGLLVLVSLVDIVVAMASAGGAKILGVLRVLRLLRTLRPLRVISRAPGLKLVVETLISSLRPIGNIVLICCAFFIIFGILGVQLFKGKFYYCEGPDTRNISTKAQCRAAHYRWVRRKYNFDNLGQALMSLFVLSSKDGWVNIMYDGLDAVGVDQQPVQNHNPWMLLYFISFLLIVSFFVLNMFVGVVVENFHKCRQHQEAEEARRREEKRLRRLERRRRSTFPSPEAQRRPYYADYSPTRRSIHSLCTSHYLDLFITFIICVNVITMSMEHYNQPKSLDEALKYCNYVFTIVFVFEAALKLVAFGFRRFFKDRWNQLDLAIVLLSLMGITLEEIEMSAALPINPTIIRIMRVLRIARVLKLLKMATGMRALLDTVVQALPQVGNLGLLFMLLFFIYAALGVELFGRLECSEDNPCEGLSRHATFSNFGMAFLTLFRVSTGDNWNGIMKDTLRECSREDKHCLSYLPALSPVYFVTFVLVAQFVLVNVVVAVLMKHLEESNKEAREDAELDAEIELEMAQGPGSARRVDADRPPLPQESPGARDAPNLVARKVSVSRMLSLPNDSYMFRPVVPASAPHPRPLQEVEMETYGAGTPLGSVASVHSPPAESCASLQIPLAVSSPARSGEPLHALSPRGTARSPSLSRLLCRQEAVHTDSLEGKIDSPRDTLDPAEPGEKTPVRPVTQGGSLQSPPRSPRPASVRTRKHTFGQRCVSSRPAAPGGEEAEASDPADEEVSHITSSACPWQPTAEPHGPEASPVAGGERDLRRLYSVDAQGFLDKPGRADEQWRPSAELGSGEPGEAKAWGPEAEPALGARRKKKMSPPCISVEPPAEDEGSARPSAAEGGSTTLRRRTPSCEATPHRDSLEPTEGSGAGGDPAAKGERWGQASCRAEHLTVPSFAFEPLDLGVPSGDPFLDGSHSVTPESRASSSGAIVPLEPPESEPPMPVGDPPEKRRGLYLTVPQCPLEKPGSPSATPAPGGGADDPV
structure (smiles),measurement,value
O=C(COc1ccccc1F)Nc1nnc(-c2ccc(F)cc2)o1,EC50,10 µM (active)
